The EC50 is the concentration that produces a half-maximal response.

Where only a bound is given, the exact number is not on record here.

In patent US20110166123A1, “NOVEL COMPOSITIONS AND METHODS OF USE” (priority 2008, published 2011) one finds EC50 data, which are given here for 31 compounds.

The assay deals with human immunodeficiency virus type 1 (HIV-1). The assay can be described thus: microbe, parasite or virus in culture. It is filed as cell-based. Conditions: Human immunodeficiency virus 1, HeLa, 48 h, HIV-1 luciferase reporter, HeLa cells, 48 hours after infection.
As to `COc1nc2c(cc1Cc1cccc(Cl)c1F)c(=O)c(C(=O)O)cn2[C@@H](CO)C(C)C` [Example 1C], the EC50 was 10 to 100 nM. `COc1nc2c(cc1-c1cccc(OCc3ccccc3)c1)c(=O)c(C(=O)O)cn2[C@H](CO)C(C)C` [Example 17L] returned an EC50 above 100 nM. On to `COc1nc2c(cc1Cc1cccc(Cl)c1F)c(=O)c(C(=O)O)cn2C[C@@H](O)c1ccccc1` [Example 1R], for which the EC50 is above 100 nM. For the compound `COc1nc2c(cc1Nc1cccc(Cl)c1F)c(=O)c(C(=O)O)cn2[C@H](CO)C(C)C` [Example 20OO, (S)-6-(3-chloro-2-fluorophenylamino)-1-(1-hydroxy-3-methylbutan-2-yl)-7-methoxy-4-oxo-1,4-dihydro-1,8-naphthyridine-3-carboxylic acid], the EC50 was above 100 nM. `COc1nc2c(cc1Cc1cccc(Cl)c1F)c(=O)c(C(=O)O)cn2C[C@H](O)c1ccccc1` [Example 1Q] gave an EC50 above 100 nM.

With `CC(C)(C)[C@@H](CO)n1cc(C(=O)O)c(=O)c2cc(Cc3cccc(Cl)c3F)c(CCCO)nc21` [Example 3C, 6-(3-Chloro-2-fluoro-benzyl)-1-((S)-1-hydroxymethyl-2,2-dimethyl-propyl)-7-(3-hydroxy-propyl)-4-oxo-1,4-dihydro-1,8-naphthyridine-3-carboxylic acid], the EC50 was below 10 nM. For `CCCn1cc(C(=O)OC(=O)c2ccccc2)c(=O)c2c(N)nc(SC)nc21` [Example 7A], the EC50 is above 100 nM. Compound `COc1nc2c(cc1N1CCc3ccc(F)cc3C1)c(=O)c(C(=O)O)cn2[C@H](CO)C(C)C` [Example 17N] displayed an EC50 above 100 nM. In turn, `COc1nc2c(cc1-c1cccc(Cl)c1F)c(=O)c(C(=O)O)cn2[C@H](CO)C(C)C` [Example 17C] displayed an EC50 above 100 nM. Consider `CC(C)(C)[C@@H](CO)n1cc(C(=O)O)c(=O)c2cc(Cc3cccc(Cl)c3F)c(N3CCOCC3)nc21` [Example 2A, (S)-6-(3-chloro-2-fluorobenzyl)-7-morpholin-1-(1-hydroxy-3,3-dimethylbutan-2-yl)-4-oxo-1,4-dihydro-1,8-naphthyridine-3-carboxylic acid], for which the EC50 was below 10 nM. Compound `COc1nc2c(cc1N(C)Cc1ccccc1F)c(=O)c(C(=O)O)cn2[C@H](CO)C(C)C` [Example 20U, (S)-6-((2-fluorobenzyl)(methyl)amino)-1-(1-hydroxy-3-methylbutan-2-yl)-7-methoxy-4-oxo-1,4-dihydro-1,8-naphthyridine-3-carboxylic acid] returned an EC50 above 100 nM. For the compound `CC(C)(C)[C@@H](CO)n1cc(C(=O)O)c(=O)c2cc(NCc3c(F)cc(F)cc3F)c(Cl)cc21` [Example 26D, (S)-7-chloro-1-(1-hydroxy-3,3-dimethylbutan-2-yl)-4-oxo-6-(2,4,6-trifluorobenzylamino)-1,4-dihydroquinoline-3-carboxylic acid], the EC50 is 10 to 100 nM. The value for `CC(C)[C@@H](CO)n1cc(C(=O)O)c(=O)c2cc(NCc3ccc(F)cc3)c(N3CCOCC3)nc21` [Example 24A, (S)-6-(4-fluorobenzylamino)-1-(1-hydroxy-3-methylbutan-2-yl)-7-morpholino-4-oxo-1,4-dihydro-1,8-naphthyridine-3-carboxylic acid] was above 100 nM; that for `COc1cc2c(cc1NCc1c(F)cc(F)cc1F)c(=O)c(C(=O)O)cn2[C@H](CO)C(C)C` [Example 21B, (S)-1-(1-hydroxy-3-methylbutan-2-yl)-7-methoxy-4-oxo-6-(2,4,6-trifluorobenzylamino)-1,4-dihydroquinoline-3-carboxylic acid] was below 10 nM. Next, `COc1nc2c(cc1Cc1cccc(Cl)c1F)c(=O)c(C(=O)NCCO)cn2[C@H](CO)C(C)C` [Example 2II]: above 100 nM; `CC(C)(C)[C@@H](CO)n1cc(C(=O)O)c(=O)c2cc(Cc3cccc(Cl)c3F)c(NCCCn3ccnc3)nc21` [Example 2GG]: 10 to 100 nM. The value for `CC[C@@H](CO)n1cc(C(=O)O)c(=O)c2cc(Cc3cccc(Cl)c3F)ncc21` [Example 5G] was above 100 nM. For `COc1nc2c(cc1-c1ccc(F)cc1)c(=O)c(C(=O)O)cn2[C@H](CO)C(C)C` [Example 17A], the EC50 was above 100 nM. The compound `COc1nc2c(cc1NCc1ccccc1)c(=O)c(C(=O)O)cn2[C@H](CO)C(C)C` [Example 20O, (S)-6-(benzylamino)-1-(1-hydroxy-3-methylbutan-2-yl)-7-methoxy-4-oxo-1,4-dihydro-1,8-naphthyridine-3-carboxylic acid] registered an EC50 above 100 nM. Regarding `CC(C)(C)[C@@H](CO)n1cc(C(=O)O)c(=O)c2cc(Cc3cccc(Cl)c3F)c(NCCCO)nc21` [Example 2S], the EC50 fell in the range of 10 to 100 nM. Regarding `COCCNc1nc2c(cc1Cc1cccc(Cl)c1F)c(=O)c(C(=O)O)cn2[C@H](CO)C(C)(C)C` [Example 2T], the EC50 is below 10 nM. In the case of `COc1ccc(COc2cc3c(=O)c(C(=O)O)cn([C@H](CO)C(C)(C)C)c3cc2OC)cc1` [Example 29E, (S)-1-(1-hydroxy-3,3-dimethylbutan-2-yl)-7-methoxy-6-(4-methoxybenzyloxy)-4-oxo-1,4-dihydroquinoline-3-carboxylic acid], the EC50 was above 100 nM.

Consider `CC(C)[C@H]1COc2nc(Cc3cccc(Cl)c3F)cc3c(=O)c(C(=O)O)cn1c23` [Example 5E, (S)-8-(3-chloro-2-fluoro-benzyl)-3-isopropyl-6-oxo-2,3-dihydro-6H-1-oxa-3a,9-diaza-phenalene-5-carboxylic acid], for which the EC50 is above 100 nM.

`CC(C)(C)[C@@H](CO)n1cc(C(=O)O)c(=O)c2cc(Cc3cccc(Cl)c3F)c(N3CCC(O)CC3)nc21` [Example 2X] displayed an EC50 of 10 to 100 nM.

As to `CC(C)[C@@H](CO)n1cc(C(=O)O)c(=O)c2cc(Cc3ccc(F)c(F)c3)ncc21` [Example 5B, 6-(3,4-Difluoro-benzyl)-1-((S)-1-hydroxymethyl-2-methyl-propyl)-4-oxo-1,4-dihydro-[1,7]naphthyridine-3-carboxylic acid], the EC50 was above 100 nM. The compound `COc1nc2c(cc1NCc1cccc(C(F)(F)F)c1)c(=O)c(C(=O)O)cn2[C@H](CO)C(C)C` [Example 20X, (S)-1-(1-hydroxy-3-methylbutan-2-yl)-7-methoxy-4-oxo-6-(3-(trifluoromethyl)benzylamino)-1,4-dihydro-1,8-naphthyridine-3-carboxylic acid] returned an EC50 above 100 nM. Regarding `CCOc1nc2c(cc1NCc1c(F)cc(F)cc1F)c(=O)c(C(=O)O)cn2[C@H](CO)C(C)C` [Example 27B, (S)-7-Ethoxy-1-(1-hydroxy-3-methylbutan-2-yl)-4-oxo-6-(2,4,6-trifluorobenzylamino)-1,4-dihydro-1,8-naphthyridine-3-carboxylic acid], the EC50 lay in the range of 10 to 100 nM.

Compound `COCCOc1nc2c(cc1Cc1cccc(Cl)c1F)c(=O)c(C(=O)O)cn2[C@H](CO)C(C)(C)C` [Example 2H] gave an EC50 below 10 nM.

For `COc1nc2c(cc1CNc1ccc(F)cc1)c(=O)c(C(=O)O)cn2[C@H](CO)C(C)C` [Example 12D], the EC50 is above 100 nM. As to `Cc1nc2c(cc1Cc1cccc(Cl)c1F)c(=O)c(C(=O)O)cn2[C@H](CO)C(C)(C)C` [Example 3B, 6-(3-Chloro-2-fluorobenzyl)-1-((S)-1-hydroxymethyl-2,2-dimethyl-propyl)-7-methyl-4-oxo-1,4-dihydro-1,8-naphthyridine-3-carboxylic acid], the EC50 lay in the range of 10 to 100 nM. As for `CC[C@@H](CO)n1cc(C(=O)O)c(=O)c2cc(Cc3cccc(Cl)c3F)c(OC)nc21` [Example 1I], the EC50 lay in the range of 10 to 100 nM.
